Reference: PMC7725003, “Systematically Studying the Optimal Amino Acid Distribution Patterns of the Amphiphilic Structure by Using the Ultrashort Amphiphiles” (Frontiers in Microbiology, 2020)
Where no end group is shown, it is not given here.

Experiments:
MRSA 43300 = assay type: cell-based, methicillin-resistant S. aureus; conditions: 43300, 24 h
How it was run: (§1)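 Modified NCCLS broth microdilution: mid-log bacteria diluted in MHB to 0.5–1 × 10^6 CFU mL^–1, mixed with peptides serially diluted in 0.2% BSA, incubated 24 h at 37°C. MIC taken as lowest concentration inhibiting 95% of growth by absorbance at 492 nm.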

E. coli UB1005 = assay type: cell-based, Escherichia coli; conditions: UB1005, 24 h
How it was run: as §1

E. coli O78 = assay type: cell-based, Escherichia coli; conditions: O78, 24 h
How it was run: as §1

E. coli 25922 = assay type: cell-based, Escherichia coli; conditions: 25922, 24 h
How it was run: as §1

[1] = system: Listeria monocytogenes CGMCC 1.1075; assay type: cell-based; conditions: CGMCC 1.1075, 24 h
How it was run: as §1

E. coli ATCC 25922 = assay: Salt sensitivity assay (MIC); assay type: cell-based, Escherichia coli; conditions: for MIC, FeCl3: 4 μM FeCl3; for MIC, NH4Cl: 6 μM NH4Cl; for MIC, ZnCl2: 8 μM ZnCl2; for MIC, MgCl2: 1 mM MgCl2; for MIC, CaCl2: 2 mM CaCl2; for MIC, KCl: 4.5 mM KCl; for MIC, NaCl: 150 mM NaCl; for MIC, Control: no added salt, three independent assays
How it was run: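 The salt sensitivity of peptides was tested against E. coli ATCC 25922 using a modified NCCLS broth microdilution MIC method. Mid-log bacteria were diluted in MHB to 0.5–1 × 10^6 CFU mL^–1 and mixed in equal volumes with peptides serially diluted in 0.2% BSA in 96-well plates. Physiological salt was added where specified, and the assay was done three independent times.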

S. epidermidis 12228 = assay type: cell-based, Staphylococcus epidermidis; conditions: 12228, 24 h
How it was run: as §1

[2] = system: all of the tested bacterial strains; assay: Geometric mean of MICs, all tested bacterial strains; assay type: cell-based; conditions: for GM, All: geometric mean of MICs across all tested strains; for TI, All: therapeutic index TI = MHC/GM MIC
How it was run: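 Mid-log bacteria at 0.5–1 × 10^6 CFU mL^–1 in MHB with peptides serially diluted in 0.2% BSA, 24 h at 37°C. MIC is the lowest concentration giving 95% growth inhibition by A492. MBC is the lowest giving >99.9% kill on agar subculture, and the GM is taken over all strains.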

Gram-positive bacteria = conditions: for GM, Gram-positive bacteria: geometric mean of MICs (Table 3); for TI, Gram-positive bacteria: therapeutic index TI = MHC/GM MIC
How it was run: (§2)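 Broth microdilution adapted from NCCLS: mid-log bacteria diluted in MHB to 0.5–1 × 10^6 CFU mL^–1, mixed with peptides serially diluted in 0.2% BSA. After 24 h at 37°C, MIC taken as the lowest concentration inhibiting 95% of growth by absorbance at 492 nm. Assays repeated more than 3 times.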

Gram-negative bacteria = conditions: for GM, Gram-negative bacteria: geometric mean of MICs (Table 3); for TI, Gram-negative bacteria: therapeutic index TI = MHC/GM MIC
How it was run: as §2

S. aureus 29213 [3] = assay: Salt sensitivity assay (MIC); assay type: cell-based, Staphylococcus aureus; conditions: for MIC, FeCl3: 4 μM FeCl3; for MIC, NH4Cl: 6 μM NH4Cl; for MIC, ZnCl2: 8 μM ZnCl2; for MIC, MgCl2: 1 mM MgCl2; for MIC, CaCl2: 2 mM CaCl2; for MIC, KCl: 4.5 mM KCl; for MIC, NaCl: 150 mM NaCl; for MIC, Control: no added salt, three independent assays
How it was run: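 MICs determined by broth microdilution in MHB with 0.5–1 × 10^6 CFU/mL, peptides serially diluted in 0.2% BSA, 24 h at 37°C. Medium supplemented with physiological salts (150 mM NaCl, 4.5 mM KCl, 6 μM NH4Cl, 8 μM ZnCl2, 1 mM MgCl2, 2mM CaCl2, 4 μM FeCl3). MIC = lowest concentration inhibiting 95% growth (A492).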

S. aureus 29213 [4] = assay type: cell-based, Staphylococcus aureus; conditions: 29213, 24 h
How it was run: as §1

S. aureus 25923 = assay type: cell-based, Staphylococcus aureus; conditions: 25923, 24 h
How it was run: as §1

S. pullorum 7913 = assay type: cell-based, Salmonella pullorum; conditions: 7913, 24 h
How it was run: as §1

S. typhimurium 14028 = assay type: cell-based, Salmonella typhimurium; conditions: 14028, 24 h
How it was run: as §1

S. typhimurium 7731 = assay type: cell-based, Salmonella typhimurium; conditions: 7731, 24 h
How it was run: as §1

P. aeruginosa 27853 = assay type: cell-based, Pseudomonas aeruginosa; conditions: 27853, 24 h
How it was run: as §1

B. subtilis 63501 = assay type: cell-based, Bacillus subtilis; conditions: 63501, 24 h
How it was run: as §1

E. faecalis 29212 = assay type: cell-based, Enterococcus faecalis; conditions: 29212, 24 h
How it was run: as §1

## RRWWWWRRW-NH2 [W7]
MRSA 43300
  MBC: 4 µM
  MIC: 2 µM
E. coli UB1005
  MBC: 8 µM
  MIC: 4 µM
E. coli O78
  MBC: 16 µM
  MIC: 8 µM
E. coli 25922
  MBC: 8 µM
  MIC: 4 µM
[1]
  MBC: 4 µM
  MIC: 2 µM
E. coli ATCC 25922
  MIC, FeCl3: 8 µM
  MIC, NH4Cl: 4 µM
  MIC, ZnCl2: 4 µM
  MIC, MgCl2: 4 µM
  MIC, CaCl2: 8 µM
  MIC, KCl: 8 µM
  MIC, NaCl: 8 µM
  MIC, Control: 4 µM
S. epidermidis 12228
  MBC: 4 µM
  MIC: 2 µM
[2]
  GM, All: 4.00 µM
  TI, All: 64.00
Gram-positive bacteria
  GM, Gram-positive bacteria: 2.44 µM
  TI, Gram-positive bacteria: 104.92
Gram-negative bacteria
  GM, Gram-negative bacteria: 5.88 µM
  TI, Gram-negative bacteria: 43.54
S. aureus 29213 [3]
  MIC, FeCl3: 8 µM
  MIC, NH4Cl: 4 µM
  MIC, ZnCl2: 4 µM
  MIC, MgCl2: 4 µM
  MIC, CaCl2: 4 µM
  MIC, KCl: 4 µM
  MIC, NaCl: 4 µM
  MIC, Control: 4 µM
S. aureus 29213 [4]
  MBC: 8 µM
  MIC: 4 µM
S. aureus 25923
  MBC: 4 µM
  MIC: 2 µM
S. pullorum 7913
  MBC: 8 µM
  MIC: 4 µM
S. typhimurium 14028
  MBC: 16 µM
  MIC: 8 µM
S. typhimurium 7731
  MBC: 32 µM
  MIC: 16 µM
P. aeruginosa 27853
  MBC: 32 µM
  MIC: 4 µM
B. subtilis 63501
  MBC: 2 µM
  MIC: 1 µM
E. faecalis 29212
  MBC: 16 µM
  MIC: 8 µM

## WWRWWRRRW-NH2 [W1]
MRSA 43300
  MBC: 4 µM
  MIC: 2 µM
E. coli UB1005
  MBC: 8 µM
  MIC: 4 µM
E. coli O78
  MBC: 8 µM
  MIC: 4 µM
E. coli 25922
  MBC: 8 µM
  MIC: 4 µM
[1]
  MBC: 16 µM
  MIC: 8 µM
E. coli ATCC 25922
  MIC, FeCl3: 2 µM
  MIC, NH4Cl: 4 µM
  MIC, ZnCl2: 2 µM
  MIC, MgCl2: 2 µM
  MIC, CaCl2: 2 µM
  MIC, KCl: 4 µM
  MIC, NaCl: 8 µM
  MIC, Control: 4 µM
S. epidermidis 12228
  MBC: 4 µM
  MIC: 2 µM
[2]
  GM, All: 3.51 µM
  TI, All: 18.23
Gram-positive bacteria
  GM, Gram-positive bacteria: 2.44 µM
  TI, Gram-positive bacteria: 26.23
Gram-negative bacteria
  GM, Gram-negative bacteria: 4.67 µM
  TI, Gram-negative bacteria: 13.70
S. aureus 29213 [3]
  MIC, FeCl3: 2 µM
  MIC, NH4Cl: 2 µM
  MIC, ZnCl2: 2 µM
  MIC, MgCl2: 2 µM
  MIC, CaCl2: 2 µM
  MIC, KCl: 2 µM
  MIC, NaCl: 4 µM
  MIC, Control: 2 µM
S. aureus 29213 [4]
  MBC: 4 µM
  MIC: 2 µM
S. aureus 25923
  MBC: 4 µM
  MIC: 2 µM
S. pullorum 7913
  MBC: 8 µM
  MIC: 4 µM
S. typhimurium 14028
  MBC: 8 µM
  MIC: 4 µM
S. typhimurium 7731
  MBC: 8 µM
  MIC: 4 µM
P. aeruginosa 27853
  MBC: 16 µM
  MIC: 8 µM
B. subtilis 63501
  MBC: 2 µM
  MIC: 1 µM
E. faecalis 29212
  MBC: 8 µM
  MIC: 4 µM
